Assays:
[1] = tested on: HIF2α-regulated expression of the endogenous target gene hEGLN3 in 786-O cells; experiment: Cellular iScript assay for HIF2α (quantitative RT-PCR of hEGLN3); type: cell-based, human; conditions: Homo sapiens, 786-0, 48 hours incubation
Experimental: (§1) Stock solutions of compounds were prepared at a concentration of 10 mM in DMSO and stored at 4° C. Where necessary to afford a full dose-response curve, the stock solutions were pre-diluted in DMSO to 1,000-fold the desired reduced start concentration. On the day after cell seeding, eleven 2-fold serial dilutions of each compound were dispensed directly into the cell assay plates using either HP 300D non-contact Digital Dispenser (TECAN) or a ATS100 acoustic dispenser (EDC Biosystems).
Compound-mediated modulation of the HIF2α-regulated expression of the endogenous target gene hEGLN3 (OMIM: 606426), as well as beta-actin (OMIM: 102630) as a house-keeping control, was assess in 786-O cells (RRID CVCL_1051) using a quantitative RT-PCR approach. In short, 786-O cells were maintained in growth medium composed of DMEM (GIBCO #11995-065), 2 mM L-Glutamine (BioConcept #5-10K50-H), 1× Penicillin/Streptomycin (BioConcept #4-01F00-H), 10% fetal calf serum (Gibco #A31608-01), 1 mM Sodium pyruvate (BioConcept #5-60F00-H). Cells were seeded at 1,000 cells/20 μL/well into white-wall, clear-bottom 384-well plates (Greiner #781098) and incubated over night at 37° C. prior to addition of serial compound dilutions as described above. Following incubation for 48 hours at 37° C., medium supernatant was discarded and the plate blotted dry by inverting on a tissue. The same procedure was repeated following one wash with 20 μL phosphate-buffered saline. Following addition of 25 μL/well iScript sample preparation reagent (BioRad #170-8899) using a 16-channel Matrix pipette, the plate was incubated for 2 min at room temperature. 20 μL lysate supernatant was then removed and transferred to a new 384 well plate (Costar #3656) and diluted 1:3 by adding 5 μL of the lysate to 10 μL H2O using a Bravo liquid handler (Agilent). 2 μL of the diluted lysate was added to the 8 μL of a mastermix containing 5 μL iTaq Universal Probes One-step kit (BioRad #172-5141), 0.25 μL iScript reverse transcription supermix (BioRad #1708840), 0.25 μL 40×HEX-ZEN-labeled TaqMan probe for beta-actin (IDT #Hs.PT.39a.22214847: Probe 5′ HEX-TCA TCC ATG/ZEN/GTG AGC TGG CGG-3′ (SEQ ID NO: 2) Iowa Black FQ, Primer 1: ACA GAG CCT CGC CTT TG (SEQ ID NO: 3); Primer 2: CCT TGC ACA TGC CGG (SEQ ID NO: 4) AG), 0.25 μL, 40×FAM-ZEN-labeled TaqMan probe for hEGLN3 (IDT #Hs.PT.58.189348: Probe 5′ 6-FAM-TTT GGC TTC/ZEN/TGC CCT TTC TTC AGC-3′ (SEQ ID NO: 5) Iowa Black FQ, Primer 1: CACGGTCAGTCTTCAGTGAG (SEQ ID NO: 6); Primer 2: CGCAACCAGATATGCTATGACT (SEQ ID NO: 7)), 2.25 μL RNase-free water, prelaid in a 384 well plate (ABI #4309849) using a 16-channel Matrix pipette. The plate was sealed with a PCR-compatible optical film (MicroAmp, ABI #4360954) and centrifuged (1500 rpm, 5 min, +4° C.) to collect all reagents in the bottom of the well and to remove bubbles. The plate content was amplified on a 7900HT thermal cycler (ABI) using the following conditions: Step 1: 50° C. for 10 min, Step 2: 95° C. for 3 min, Step 3 (40×): 95° C. for 15 s, 60° C. for 1 min. ROX (reaction volume 10 μL) was used as a passive reference. Data were collected with manual adjustment of the Ct threshold (beta-actin: 0.046, hEGLN3: 0.06) and were analyzed using the 2^(−ΔΔCt) method. Thus, for each sample, the following values were calculated: 2^(−Ct)a for beta-actin, 2^(−Ct)e for EGLN3, and 2^(−ΔCt) calculated as (2^(−Ct)e/2^(−Ct)a). The mean 2^(−ΔCt) as well as the corresponding standard deviation was calculated for each sample. Taking the DMSO-treated sample as a reference, the 2^(−ΔΔCt) for each sample was calculated as follows: 2^(−ΔΔCt)=2^(−ΔCt)sample/(2^(−ΔCt)DMSO). After calculating differential expression as 2^(−ΔΔCt) for each sample, it was then expressed as a percentage (×100) to obtain a dose-response curve in % of DMSO control and IC50s were calculated using a four-parametric fit model.

[2] = tested on: HIF2α-dependent transcription in 786-O-HRE-Luc cells; experiment: In vitro cellular hypoxia response element (HRE) reporter gene assay (RGA) for HIF2α; type: cell-based, human; conditions: Homo sapiens, 24 hours incubation
Experimental: as §1
The ability of compounds to inhibit HIF2α- and HIF1α-dependent transcription was assessed in 786-O-HRE-Luc and RCC4-HRE-Luc cells, respectively. The putative unselective inhibition of firefly luciferase activity or expression was assessed in 786-O-UB6-Luc and RCC4-UB6-Luc cells, respectively. The reporter lines were generated as follows: 786-O (RRID: CVCL_1051) and RCC4 (RRID: CVCL_0498) clear cell renal carcinoma cell lines were obtained from ATCC and Celeste Simon (University of Pennsylvania), respectively. Either cell line was transduced with a lentiviral vector in which the expression of a PEST-destabilized version of firefly-luciferase is under the control of either a minimal promoter coupled to four copies of a minimal hypoxia response element (HRE) sequence (pLenti 4×HRE Luc PEST), or a promoter from the house-keeping UBC gene (pLenti UB6 Luc PEST). In short, for the construction of the pLenti 4×HRE Luc PEST vector, 4×HRE DNA oligonucleotides were synthesized, annealed and cloned into pGL4.27 plasmid vector (Promega) predigested with NheI and HindIII restriction enzymes. The sequence of the two DNA oligonucleotides was as follows: NheI 4×HRE HindIII FWD: […] (SEQ ID NO: 8); NheI 4×HRE HindIII REV […] (SEQ ID NO: 9). The 4×HRE Luc PEST fragment was then PCRed from this plasmid with restriction enzyme sites NheI and XhoI at the two ends, and inserted into pLenti6/BLOCK iT DEST (Thermo Fisher Scientific) predigested with NheI and XhoI restriction enzymes. For the construction of the pLenti UB6 Luc PEST vector, the Luc PEST sequence was PCRed from pGL4.27 (Promega) using EcoRV and XhoI restriction enzymes at the two ends, and inserted into pLenti6/UBC/V5/DEST (Thermo Fisher Scientific) predigested with the same enzymes. 786-O and RCC4 cells (300,000 per well of a 6 well plate) were infected in the presence of 10 μg/ml polybrene with lentivirus harvested two days after transfection of HEK293-FT (ThermoFisher Scientific #R70007) cells (80% confluent in a 100 cm^2 dish) with a mix of 1.5 ml OptiMEM (ThermoFisher Scientific #31985062) containing 3 μg of the desired plasmids and 9 μl of ViralPower Packaging mix (ThermoFisher Scientific #K497500), and 1.5 ml OptiMEM containing 36 μl Lipofectamine 2000 (ThermoFisher Scientific #11668019). Successfully infected cells were selected using blasticidin (Gibco #A11139-03) at a final concentration of 5 μg/ml. The resulting stable cell lines were named 786-O pLenti 4×HRE Luc PEST (short: 786-O-HRE-Luc), 786-O pLenti UB6 Luc PEST (short: 786-O-UB6-Luc), RCC4 pLenti 4×HRE Luc PEST (short: RCC4-HRE-Luc) and RCC4 pLenti UB6 Luc PEST (short: RCC4-UB6-Luc). All 4 cell lines were maintained in growth medium composed of DMEM (GIBCO #11995-065), 2 mM L-Glutamine (BioConcept #5-10K50-H), 10% fetal calf serum (Gibco #A31608-01), 1× Penicillin/Streptomycin (BioConcept #4-01F00-H), 1 mM Sodium pyruvate (BioConcept #5-60F00-H) and 5 μg/ml blasticidin (Gibco #A11139-03) at 37° C. in a humidified 5% CO2 incubator.
For the reporter gene assay, the individual cell lines were seeded at 2,500 cells/20 μL/well into white-wall, clear-bottom 384-well plates (Greiner #781098) and incubated over night at 37° C. prior to addition of serial compound dilutions as described above. […]

[3] = target: HIF2α PAS-B domain (236-350, biotinylated on the N-terminus) (Homo sapiens (Human), UniProt Q99814)
Sequence of HIF2α PAS-B domain (236-350, biotinylated on the N-terminus) (Q99814 236-350): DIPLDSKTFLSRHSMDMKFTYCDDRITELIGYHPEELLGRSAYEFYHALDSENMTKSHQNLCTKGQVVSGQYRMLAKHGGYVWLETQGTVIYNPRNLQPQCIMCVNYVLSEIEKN
Experimental: The assay buffer contained 50 mM Tris-HCl pH7 (Sigma), 20 mM NaCl (Fluka), 0.02% BSA (Sigma), 0.005% Triton X-100 (Pierce) and 1 mM DTT (Fluka). After a 30 min incubation period, 5 μL Streptavidin PVT SPA Beads (Perkin Elmer) at 1.2 mg/mL, diluted in the buffer, were added.

With `FC(F)OC1=CC(C(F)(F)F)=CN2CC3(CCCc4c(C(F)(F)F)cccc43)N=C12` (racemic) [Example 87, rac-8-(difluoromethoxy)-5′,6-bis(trifluoromethyl)-3′,4′-dihydro-2′H,3H-spiro[imidazo[1,2-a]pyridine-2,1′-naphthalene]] as the compound, how does the IC50 [1] read?
The IC50 was 159 nM.

`Fc1ccc2c(c1F)CC[C@@]21CN2C=C(C(F)(F)F)C=C(OC(F)F)C2=N1` [Example 2, (S)-8-(difluoromethoxy)-4′,5′-difluoro-6-(trifluoromethyl)-2′,3′-dihydro-3H-spiro[imidazo[1,2-a]pyridine-2,1′-indene]] was tested. Which IC50 [1] did it give?
The IC50 was 152 nM.

What about the IC50 [2] of the same compound?
The IC50 was 1530 nM.

What about the IC50 [3] of the same compound?
Its IC50 is 12 nM.

How did the IC50 [1] turn out when `FC(F)OC1=CC(C(F)(F)F)=CN2C[C@@]3(CCc4cc(C(F)(F)F)ncc43)N=C12` [Example 3, (S)-8′-(difluoromethoxy)-3,6′-bis(trifluoromethyl)-5,6-dihydro-3′H-spiro[cyclopenta[c]pyridine-7,2′-imidazo[1,2-a]pyridine]] was run?
Its IC50 is 187 nM.

And the IC50 [2]?
Its IC50 is greater than 10000 nM.

What about the IC50 [3] of the same compound?
Its IC50 is 12 nM.

How did the IC50 [1] turn out when `FC(F)OC1=CC(C(F)(F)F)=CN2C[C@@]3(CCc4cc(C(F)(F)F)ccc43)N=C12` [Example 6, (S)-8-(difluoromethoxy)-5′,6-bis(trifluoromethyl)-2′,3′-dihydro-3H-spiro[imidazo[1,2-a]pyridine-2,1′-indene]] was run?
The IC50 was 84 nM.

What about the IC50 [2] of the same compound?
The IC50 was 250 nM.

What does the source list for `FC(F)(F)C1=CN2C[C@@]3(CCc4c3ccc(Br)c4Cl)N=C2C(Cl)=C1` [Example 71, (S)-5′-bromo-4′,8-dichloro-6-(trifluoromethyl)-2′,3′-dihydro-3H-spiro[imidazo[1,2-a]pyridine-2,1′-indene]]?
IC50 [1]: 181 nM; IC50 [3]: 20 nM

For `FC(F)OC1=CC(C(F)(F)F)=CN2C[C@@]3(CCc4cc(Br)ccc43)N=C12` [Example 72, (5)-5′-bromo-8-(difluoromethoxy)-6-(trifluoromethyl)-2′,3′-dihydro-3H-spiro[imidazo[1,2-a]pyridine-2,1′-indene]], which IC50 [1] is on record?
Its IC50 is 84 nM.

And the IC50 [3]?
The IC50 was 7 nM.

Which results are given for `FC(F)OC1=CC(C(F)(F)F)=CN2C[C@@]3(CCc4ccccc43)N=C12` [Example 75, (S)-8-(difluoromethoxy)-6-(trifluoromethyl)-2′,3′-dihydro-3H-spiro[imidazo[1,2-a]pyridine-2,1′-indene]]?
IC50 [1]: 183 nM; IC50 [3]: 76 nM

With `Fc1cccc2c1CCC[C@@]21CN2C=C(C(F)(F)F)C=C(Cl)C2=N1` [Example 79, (S)-8-chloro-5′-fluoro-6-(trifluoromethyl)-3′,4′-dihydro-2′H,3H-spiro[imidazo[1,2-a]pyridine-2,1′-naphthalene]] as the compound, how does the IC50 [1] read?
The IC50 was 70 nM.

And the IC50 [3]?
Its IC50 is 5 nM.

Which results are given for `O=C1CC[C@@]2(CN3C=C(C(F)(F)F)C=C(OC(F)F)C3=N2)c2ccc(Br)cc21` [Example 90, (S)-6′-bromo-8-(difluoromethoxy)-6-(trifluoromethyl)-2′,3′-dihydro-3H,4′H-spiro[imidazo[1,2-a]pyridine-2,1′-naphthalen]-4′-one]?
IC50 [1]: 162 nM; IC50 [3]: 10 nM

`N#CC1=CN2C[C@@]3(CCSc4c3ccc(Br)c4F)N=C2C(OC(F)F)=C1` [Example 110, (S)-7′-bromo-8-(difluoromethoxy)-8′-fluoro-3H-spiro[imidazo[1,2-a]pyridine-2,4′-thiochromane]-6-carbonitrile] was tested. Which IC50 [1] did it give?
The IC50 was 35 nM.

With `Fc1ccc2c(c1F)SCC[C@@]21CN2C=C(C(F)(F)F)C=C(OC(F)F)C2=N1` [Example 113, (S)-8-(difluoromethoxy)-7′,8′-difluoro-6-(trifluoromethyl)-3H-spiro[imidazo[1,2-a]pyridine-2,4′-thiochromane]] as the compound, how does the IC50 [1] read?
The IC50 was 32 nM.

What about the IC50 [3] of the same compound?
The IC50 was 4 nM.

Which IC50 [1] does the source give for `Fc1cccc2c1CSC[C@@]21CN2C=C(C(F)(F)F)C=C(OC(F)F)C2=N1` [Example 115, (S)-8-(difluoromethoxy)-8′-fluoro-6-(trifluoromethyl)-3H-spiro[imidazo[1,2-a]pyridine-2,4′-isothiochromane]] here?
The IC50 was 30 nM.

And the IC50 [3]?
Its IC50 is no more than 3 nM.

What does the source list for `Fc1ccc2c(c1)CSC[C@@]21CN2C=C(C(F)(F)F)C=C(OC(F)F)C2=N1` [Example 116, (S)-8-(difluoromethoxy)-7′-fluoro-6-(trifluoromethyl)-3H-spiro[imidazo[1,2-a]pyridine-2,4′-isothiochromane]]?
IC50 [1]: 46 nM; IC50 [3]: 6 nM
